Literature values, collected in PubChem BioAssay AID1259409 (Chemical Carcinogenesis Research Information System (CCRIS), 2018).

System: rodent chemically induced tumor inhibition, incidence and multiplicity
Test: CCRIS tumor inhibitor studies
Details: Route [Inhibitor]: ORAL, Species: HAMSTER, Promoter: NONE USED

For `CC1=C(/C=C/C(C)=C/C=C/C(C)=C/C(=O)NCCO)C(C)(C)CCC1`, the “tumour outcome (control, treated, inhibition, significance)” value (Carcinogen: N-NITROBIS(2-OXOPROPYL)AMINE, 60559-38-4, Dose [Inhibitor]: 0.5 OR 1.0 MMOL/KG DIET DAILY STARTING 1 WK AFTER CARCINOGEN TREATMENT AND CONTINUING THROUGH THE END OF THE STUDY (STUD, Strain/Sex: SYRIAN/MALE, Target Tissue: Type of Lesion: PANCREAS: DUCTULAR CARCINOMA, Dose [Carcinogen]: 10 MG/KG BW ONCE) is given as 4/22 (18%), 7/37 (19%), -6%, not significant, the “tumour outcome (control, treated, inhibition, significance)” value (Carcinogen: N-NITROBIS(2-OXOPROPYL)AMINE, 60559-38-4, Dose [Inhibitor]: 0.5 OR 1.0 MMOL/KG DIET DAILY STARTING 1 WK AFTER CARCINOGEN TREATMENT AND CONTINUING THROUGH THE END OF THE STUDY (STUD, Strain/Sex: SYRIAN/MALE, Target Tissue: Type of Lesion: PANCREAS: DUCTULAR CARCINOMA, Dose [Carcinogen]: 40 MG/KG BW ONCE) is given as 5/24 (21%), 20/42 (48%), -129%, not significant and the “tumour outcome (control, treated, inhibition, significance)” value (Carcinogen: N-NITROBIS(2-OXOPROPYL)AMINE, 60559-38-4, Dose [Inhibitor]: 0.5 OR 1.0 MMOL/KG IN DIET STARTING 1 WK AFTER CARCINOGEN TREATMENT AND CONTINUING THROUGH THE END OF THE STUDY (STUDY D, Strain/Sex: SYRIAN/FEMALE, Target Tissue: Type of Lesion: LIVER: BENIGN TUMOR, Dose [Carcinogen]: 40 MG/KG BW ONCE) is given as 4/20 (20%), 17/35 (49%), -145%, not significant. The “tumour outcome (control, treated, inhibition, significance)” value (Carcinogen: N-NITROBIS(2-OXOPROPYL)AMINE, 60559-38-4, Dose [Inhibitor]: 0.5 OR 1.0 MMOL/KG IN DIET STARTING 1 WK AFTER CARCINOGEN TREATMENT AND CONTINUING THROUGH THE END OF THE STUDY (STUDY D, Strain/Sex: SYRIAN/FEMALE, Target Tissue: Type of Lesion: PANCREAS: DUCTULAR ADENOMA, Dose [Carcinogen]: 10 MG/KG BW ONCE) was 5/23 (23%), 10/37 (27%), -17%, not significant, the “tumour outcome (control, treated, inhibition, significance)” value (Carcinogen: N-NITROBIS(2-OXOPROPYL)AMINE, 60559-38-4, Dose [Inhibitor]: 0.5 OR 1.0 MMOL/KG IN DIET STARTING 1 WK AFTER CARCINOGEN TREATMENT AND CONTINUING THROUGH THE END OF THE STUDY (STUDY D, Strain/Sex: SYRIAN/FEMALE, Target Tissue: Type of Lesion: PANCREAS: DUCTULAR ADENOMA, Dose [Carcinogen]: 40 MG/KG BW ONCE) was 12/20 (60%), 27/33 (82%), -37%, not significant and the “tumour outcome (control, treated, inhibition, significance)” value (Carcinogen: N-NITROBIS(2-OXOPROPYL)AMINE, 60559-38-4, Dose [Inhibitor]: 0.5 OR 1.0 MMOL/KG IN DIET STARTING 1 WK AFTER CARCINOGEN TREATMENT AND CONTINUING THROUGH THE END OF THE STUDY (STUDY D, Strain/Sex: SYRIAN/FEMALE, Target Tissue: Type of Lesion: PANCREAS: DUCTULAR CARCINOMA, Dose [Carcinogen]: 40 MG/KG BW ONCE) was 6/20 (30%), 8/33 (24%), 20%, not significant. For the same molecule, the “tumour outcome (control, treated, inhibition, significance)” value (Carcinogen: N-NITROBIS(2-OXOPROPYL)AMINE, 60559-38-4, Dose [Inhibitor]: 0.5 OR 1.0 MMOL/KG IN DIET STARTING 1 WK AFTER CARCINOGEN TREATMENT AND CONTINUING THROUGH THE END OF THE STUDY (STUDY D, Strain/Sex: SYRIAN/MALE, Target Tissue: Type of Lesion: LIVER: BENIGN TUMOR, Dose [Carcinogen]: 40 MG/KG BW ONCE) was 5/24 (21%), 26/42 (62%), -195%, p<0.05, the “tumour outcome (control, treated, inhibition, significance)” value (Carcinogen: N-NITROBIS(2-OXOPROPYL)AMINE, 60559-38-4, Dose [Inhibitor]: 0.5 OR 1.0 MMOL/KG IN DIET STARTING 1 WK AFTER CARCINOGEN TREATMENT AND CONTINUING THROUGH THE END OF THE STUDY (STUDY D, Strain/Sex: SYRIAN/MALE, Target Tissue: Type of Lesion: PANCREAS: DUCTULAR ADENOMA, Dose [Carcinogen]: 10 MG/KG BW ONCE) was 3/22 (14%), 16/37 (43%), -207%, not significant and the “tumour outcome (control, treated, inhibition, significance)” value (Carcinogen: N-NITROBIS(2-OXOPROPYL)AMINE, 60559-38-4, Dose [Inhibitor]: 0.5 OR 1.0 MMOL/KG IN DIET STARTING 1 WK AFTER CARCINOGEN TREATMENT AND CONTINUING THROUGH THE END OF THE STUDY (STUDY D, Strain/Sex: SYRIAN/MALE, Target Tissue: Type of Lesion: PANCREAS: DUCTULAR ADENOMA, Dose [Carcinogen]: 40 MG/KG BW ONCE) was 8/24 (33%), 34/42 (81%), -145%, not significant. The “tumour outcome (control, treated, inhibition, significance)” value (Carcinogen: N-NITROBIS(2-OXOPROPYL)AMINE, 60559-38-4, Dose [Inhibitor]: 0.5 OR 1.0 MMOL/KG IN DIET STARTING 1 WK AFTER CARCINOGEN TREATMENT AND CONTINUING THROUGH THE END OF THE STUDY (STUDY D, Strain/Sex: SYRIAN/MALE, Target Tissue: Type of Lesion: PANCREAS: DUCTULAR CARCINOMA, Dose [Carcinogen]: 10 MG/KG BW SINGLE INJECTION) was 4/22 (18%), 7/37 (19%), -6%, not significant, the “tumour outcome (control, treated, inhibition, significance)” value (Carcinogen: N-NITROBIS(2-OXOPROPYL)AMINE, 60559-38-4, Dose [Inhibitor]: 0.5 OR 1.0 MMOL/KG IN DIET STARTING 1 WK AFTER CARCINOGEN TREATMENT AND CONTINUING THROUGH THE END OF THE STUDY (STUDY D, Strain/Sex: SYRIAN/MALE, Target Tissue: Type of Lesion: PANCREAS: DUCTULAR CARCINOMA, Dose [Carcinogen]: 40 MG/KG BW ONCE) was 5/24 (21%), 20/42 (48%), -129%, not significant and the “tumour outcome (control, treated, inhibition, significance)” value (Carcinogen: N-NITROSOBIS(2-OXYPROPYL)AMINE, 60599-38-4, Dose [Inhibitor]: 0.05, 0.1 OR 0.2 MILLIMOLAR/KG DIET FOR 32 WK STARTING 1 WK AFTER CARCINOGEN DOSE (STUDY DURATION: 33 WK), Strain/Sex: SYRIAN/FEMALE, Target Tissue: Type of Lesion: LIVER: ADENOMA, Dose [Carcinogen]: 40 MG/KG ONCE) was 6/10 (60%), 6/29 (21%), 65%, p<0.025.
